Holding throughout (test): Cell proliferation assay (CellTiter-Glo)
What all share (assay type): cell-based

The test system of one assay is KM12 (TPM3-TRKA). The settings on record: Homo sapiens, anti-cell proliferation, 72 hours. A digest of the protocol:
(§1)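 Cells seeded 24 h, then exposed to compounds for 72 h at 37° C., 5% CO2. Proliferation read by CellTiter-Glo luminescent ATP detection; IC50 from dose-response fits.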

In the next assay the test system is KG-1 cell (OP2-FGFR1). The note with it: Homo sapiens, anti-cell proliferation, 72 hours. A digest of the protocol: as §1
A further assay has as its target T1, BaF3 EML4-ALK (Homo sapiens, UniProt Q9UM73).
T1 construct: The EML4-ALK gene (variant 1) was synthesized at GenScript and cloned into pCDH-CMV-MCS-EF1-Puro plasmid (System Biosciences, Inc); fused on or other part: EML4 N-terminal part (variant 1: exons 1-13, with the coiled-coil that oligomerises the fusion) fused to the intracellular part of ALK, which contains the kinase domain; Q9HC35 (Echinoderm microtubule-associated protein-like 4)
The note with it: anti-cell proliferation, 72 hours. A digest of the protocol:
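Ba/F3 cells were lentivirally transduced with EML4-ALK variant 1 and selected for puromycin resistance and IL-3-independent growth. Proliferation was measured by CellTiter-Glo ATP luminescence to give IC50.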

T1 sequence (Q9UM73 whole entry, stated change not applied, the tested form may be a part): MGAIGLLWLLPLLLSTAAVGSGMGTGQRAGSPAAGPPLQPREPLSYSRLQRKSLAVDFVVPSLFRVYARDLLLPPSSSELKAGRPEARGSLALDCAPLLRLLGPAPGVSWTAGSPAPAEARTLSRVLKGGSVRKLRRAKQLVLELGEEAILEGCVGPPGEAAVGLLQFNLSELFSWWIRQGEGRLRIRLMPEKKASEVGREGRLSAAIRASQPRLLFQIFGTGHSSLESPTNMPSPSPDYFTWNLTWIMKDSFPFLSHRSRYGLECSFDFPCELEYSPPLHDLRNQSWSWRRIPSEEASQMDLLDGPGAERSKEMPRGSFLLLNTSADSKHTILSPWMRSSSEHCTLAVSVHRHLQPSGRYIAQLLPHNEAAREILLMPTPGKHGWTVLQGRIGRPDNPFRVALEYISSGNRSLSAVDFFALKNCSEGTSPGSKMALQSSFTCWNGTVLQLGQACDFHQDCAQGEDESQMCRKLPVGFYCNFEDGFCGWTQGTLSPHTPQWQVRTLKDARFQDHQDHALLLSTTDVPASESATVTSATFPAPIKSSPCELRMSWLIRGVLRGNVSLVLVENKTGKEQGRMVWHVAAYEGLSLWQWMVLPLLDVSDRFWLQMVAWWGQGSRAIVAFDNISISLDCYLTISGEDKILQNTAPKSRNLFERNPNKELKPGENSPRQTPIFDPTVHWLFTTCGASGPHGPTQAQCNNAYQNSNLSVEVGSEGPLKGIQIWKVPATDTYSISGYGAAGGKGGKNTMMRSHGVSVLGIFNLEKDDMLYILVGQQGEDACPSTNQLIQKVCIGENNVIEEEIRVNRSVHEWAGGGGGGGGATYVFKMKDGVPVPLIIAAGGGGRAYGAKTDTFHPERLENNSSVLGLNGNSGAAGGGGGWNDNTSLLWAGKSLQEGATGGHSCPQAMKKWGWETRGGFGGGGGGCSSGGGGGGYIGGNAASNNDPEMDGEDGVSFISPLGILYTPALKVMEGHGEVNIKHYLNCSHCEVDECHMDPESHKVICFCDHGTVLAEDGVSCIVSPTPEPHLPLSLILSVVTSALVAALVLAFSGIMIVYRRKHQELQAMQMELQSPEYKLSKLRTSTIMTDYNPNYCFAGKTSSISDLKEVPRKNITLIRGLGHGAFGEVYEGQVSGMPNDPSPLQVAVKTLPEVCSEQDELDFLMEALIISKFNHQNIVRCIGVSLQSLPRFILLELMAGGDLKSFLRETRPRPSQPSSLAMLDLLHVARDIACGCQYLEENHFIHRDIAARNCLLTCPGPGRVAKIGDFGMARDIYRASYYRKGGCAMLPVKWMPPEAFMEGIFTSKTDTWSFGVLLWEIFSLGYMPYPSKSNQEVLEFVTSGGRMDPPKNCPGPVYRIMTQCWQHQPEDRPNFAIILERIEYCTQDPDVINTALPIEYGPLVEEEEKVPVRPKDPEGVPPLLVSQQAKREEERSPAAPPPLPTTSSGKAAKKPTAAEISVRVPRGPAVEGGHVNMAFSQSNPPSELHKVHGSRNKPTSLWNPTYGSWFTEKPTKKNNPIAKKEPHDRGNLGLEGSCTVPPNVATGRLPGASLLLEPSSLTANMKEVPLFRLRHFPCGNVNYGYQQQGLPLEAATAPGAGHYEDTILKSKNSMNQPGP

In general, IC50 refers to the concentration that gives 50% inhibition. A lower IC50 goes with higher potency. With `C[C@@H]1COc2ncc(F)cc2CN2CC(F)(F)COc3cn4ncc(c4nc32)C(=O)N1` [Compound 74, (14R)-4,4,9-trifluoro-14-methyl-4,5,14,15-tetrahydro-3H,7H-19,1-(metheno)[1,4]oxazepino[3,4-i]-pyrazolo[4,3-f]pyrido[3,2-l] [1,4,8,10]oxatriazacyclotridecin-16(13H)-one], the IC50 in the assay with KM12 (TPM3-TRKA) is 84 nM; with KG-1 cell (OP2-FGFR1), 3000 nM; against BaF3 EML4-ALK, > 10000 nM.
On the same counts, the results for `CC[C@@H]1COc2cn3ncc4c3nc2N1Cc1cc(F)cnc1OCC[C@H](C)NC4=O` [Compound 75, (6S,16R)-16-ethyl-12-fluoro-6-methyl-5,6,7,8,16,17-hexahydro-4H,14H-1,19-(metheno)[1,4]-oxazino[4,3-e]pyrazolo[3,4-h]-pyrido[2,3-b][1,5,7,11]oxatriaza-cyclotetradecin-4-one] are < 0.2 nM, 9.7 nM and 19.8 nM.
On the same counts, the results for `CC[C@@H]1COc2cn3ncc4c3nc2N1Cc1cc(F)cnc1OCC(C)(C)CNC4=O` [Compound 76, (16R)-16-ethyl-12-fluoro-7,7-dimethyl-5,6,7,8,16,17-hexahydro-4H,14H-1,19-(metheno)[1,4]-oxazino[4,3-e]pyrazolo[3,4-h]-pyrido[2,3-b][1,5,7,11]oxatriaza-cyclotetradecin-4-one] are < 0.2 nM, 0.8 nM and 35.3 nM.
In the same order, the values of `C[C@H]1CNC(=O)c2cnn3cc4c(nc23)N(Cc2cc(F)cnc2O1)CC(F)(F)CO4` [Compound 77, (13S)-4,4,9-trifluoro-13-methyl-4,5,14,15-tetrahydro-3H,7H-19,1-(metheno)[1,4]oxazepino[3,4-i]-pyrazolo[4,3-f]pyrido[3,2-l] [1,4,8,10]oxatriazacyclotridecin-16(13H)-one] are 446 nM, 10000 nM and > 10000 nM.
Regarding `C[C@@H]1COc2cn3ncc4c3nc2N1Cc1cc(F)cnc1OC[C@@H](F)CNC4=O` [Compound 78, (7S,16R)-7,12-difluoro-16-methyl-5,6,7,8,16,17-hexahydro-4H,14H,- 1,19-(metheno)[1,4]oxazino[4,3-e]pyrazolo[3,4-h]pyrido[2,3-b] [1,5,7,11]oxatriazacyclotetradecin-4-one], the IC50 with KM12 (TPM3-TRKA) is < 0.2 nM; in the assay on KG-1 cell (OP2-FGFR1), 10.2 nM; on BaF3 EML4-ALK, 33 nM.
In the same order, the values of `C[C@@H]1COc2cn3ncc4c3nc2N1Cc1cc(F)cnc1OCC(F)(F)CNC4=O` [Compound 79, (16R)-7,7,12-trifluoro-16-methyl-5,6,7,8,16,17-hexahydro-4H,14H-1,19-(metheno)[1,4]oxazino[4,3-e]pyrazolo[3,4-h]pyrido[2,3-b][1,5,7,11]oxatriazacyclotetra-decin-4-one] are < 0.2 nM, 9.9 nM and 31.7 nM.
On the same counts, the results for `C[C@@H]1COc2cn3ncc4c3nc2N1Cc1cc(F)cnc1OC[C@H](F)CNC4=O` [Compound 80, (7R,16R)-7,12-difluoro-16-methyl-5,6,7,8,16,17-hexahydro-4H,14H-1,19-(metheno)[1,4]-oxazino[4,3-e]pyrazolo[3,4-h]pyrido[2,3-b][1,5,7,11]oxa-triazacyclotetradecin-4-one] are < 0.2 nM, 44.4 nM and 134 nM.
In the same order, the values of `C[C@@H]1COc2cn3ncc4c3nc2N1Cc1cc(F)cnc1OC[C@H](CO)NC4=O` [Compound 82, (4R,13S)-8-fluoro-13-(hydroxy-methyl)-4-methyl-3,4,13,14-tetrahydro-6H-18,1-(metheno)-[1,4]oxazino[3,4-i]pyrazolo[4,3-f]pyrido[3,2-l][1,4,8,10]oxatriaza-cyclotridecin-15(12H)-one] are < 0.2 nM, 37.3 nM and 657 nM.
`C[C@@H]1COc2ncc(F)cc2[C@@H](C)N2c3nc4c(cnn4cc3OC[C@H]2C)C(=O)N1` [Compound 83, (4R,6R,13R)-8-fluoro-4,6,13-trimethyl-3,4,13,14-tetrahydro-6H-18,1-(metheno)[1,4]oxazino[3,4-i]pyrazolo[4,3-f]pyrido[3,2-l][1,4,8,10]oxatriazacyclotridecin-15(12H)-one]: the results for the IC50 with KM12 (TPM3-TRKA), in the assay with KG-1 cell (OP2-FGFR1) and at BaF3 EML4-ALK were < 0.2 nM, 30.2 nM and 139 nM, respectively.
As for `C[C@@H]1COc2ncc(F)cc2[C@H](C)N2c3nc4c(cnn4cc3OC[C@H]2C)C(=O)N1` [Compound 84, (4R,6S,13R)-8-fluoro-4,6,13-trimethyl-3,4,13,14-tetrahydro-6H-18,1-(metheno)[1,4]oxazino[3,4-i]pyrazolo[4,3-f]pyrido[3,2-l][1,4,8,10]oxatriazacyclotridecin-15(12H)-one], the IC50 was < 0.2 nM in the assay on KM12 (TPM3-TRKA), 130 nM with KG-1 cell (OP2-FGFR1) and 366 nM at BaF3 EML4-ALK.
In the same order, the values of `C[C@@H]1COc2cn3ncc4c3nc2N1Cc1cc(F)cnc1OC[C@@H](C(F)(F)F)NC4=O` [Compound 85, (4R,13S)-8-fluoro-4-methyl-13-(trifluoromethyl)-3,4,13,14-tetrahydro-6H-18,1-(metheno)-[1,4]oxazino[3,4-i]pyrazolo[4,3-f]pyridol[3,2-l][1,4,8,10]oxatriaza-cyclotridecin-15(12H)-one] are < 0.2 nM, 17.3 nM and 12.7 nM.
On the same counts, the results for `C[C@@H]1COc2cn3ncc4c3nc2N1Cc1cc(F)cnc1O[C@@H]1CC[C@@H](C1)NC4=O` [Compound 86, (6S,9R,17R)-13-fluoro-17-methyl-6,7,8,9,17,18-hexahydro-15H-6,9-methano-1,20-(metheno)[1,4]-oxazino[4,3-e]pyrazolo[3,4-h]-pyrido[2,3-b][1,5,7,11]oxatriaza-cyclopentadecin-4(5H)-one] are < 0.2 nM, 2.7 nM and 7.3 nM.
For `C[C@@H]1COc2cn3ncc4c3nc2N1Cc1cc(F)cnc1O[C@H]1CC[C@H](C1)NC4=O` [Compound 87, (6R,9S,17R)-13-fluoro-17-methyl-6,7,8,9,17,18-hexahydro-15H-6,9-methano-1,20-(metheno)[1,4]-oxazino[4,3-e]pyrazolo[3,4-h]-pyrido[2,3-b][1,5,7,11]oxatriaza-cyclopentadecin-4(5H)-one], the IC50 was < 0.2 nM in the assay on KM12 (TPM3-TRKA), 17.5 nM with KG-1 cell (OP2-FGFR1) and 15 nM against BaF3 EML4-ALK.
In the same order, the values of `C[C@@H]1COc2ncc(F)cc2CN2C[C@@H](O)COc3cn4ncc(c4nc32)C(=O)N1` [Compound 88, (4R,14R)-9-fluoro-4-hydroxy-14-methyl-4,5,14,15-tetrahydro-3H,7H-19,1-(metheno)[1,4]-oxazepino[3,4-i]pyrazolo[4,3-f]pyrido[3,2-l][1,4,8,10]oxatriaza-cyclotridecin-16(13H)-one] are 3.1 nM, 3000 nM and 5000 nM.
In the case of `C[C@@H]1COc2cn3ncc4c3nc2N1Cc1cc(F)cnc1OC[C@H](O)CNC4=O` [Compound 89, (7R,16R)-12-fluoro-7-hydroxy-16-methyl-5,6,7,8,16,17-hexa-hydro-4H,14H-1,19-(metheno)-[1,4]oxazino[4,3-e]pyrazolo[3,4-h]pyrido[2,3-b][1,5,7,11]oxatriaza-cyclotetradecin-4-one], the IC50 was < 0.2 nM with KM12 (TPM3-TRKA), 394 nM with KG-1 cell (OP2-FGFR1) and 1890 nM at BaF3 EML4-ALK.
In the case of `CO[C@@H]1COc2cn3ncc4c3nc2N(Cc2cc(F)cnc2O[C@@H](C)CNC4=O)C1` [Compound 91, (4S,13S)-9-fluoro-4-methoxy-13-methyl-4,5,14,15-tetrahydro-3H,7H-19,1-(metheno)[1,4]oxazepino[3,4-i]pyrazolo[4,3-f]pyrido[3,2-1][1,4,8,10]oxatriazacyclotridecin-16(13H)-one], the half-maximal inhibitory concentration (IC50) with KM12 (TPM3-TRKA) stood at 64.2 nM; with KG-1 cell (OP2-FGFR1), 990 nM; against BaF3 EML4-ALK, 234 nM.
On the same counts, the results for `COC[C@H]1COc2ncc(F)cc2CN2c3nc4c(cnn4cc3OC[C@H]2C)C(=O)N1` [Compound 92, (4R,13S)-8-fluoro-13-(methoxy-methyl)-4-methyl-3,4,13,14-tetrahydro-6H-18,1-(metheno)-[1,4]oxazino[3,4-i]pyrazolo[4,3-f]pyrido[3,2-l][1,4,8,10]oxatriaza-cyclotridecin-15(12H)-one] are 5.7 nM, 328 nM and 2000 nM.
In the same order, the values of `C[C@H]1CNC(=O)c2cnn3cc4c(nc23)N(Cc2cc(F)cnc2O1)C[C@@H](F)CO4` [Compound 93, (4R,13S)-4,9-difluoro-13-methyl-4,5,14,15-tetrahydro-3H,7H-19,1-(metheno)[1,4]oxazepino[3,4-i]-pyrazolo[4,3-f]pyrido[3,2-l] [1,4,8,10]oxatriazacyclotridecin-16(13H)-one] are 189 nM, > 10000 nM and > 10000 nM.
On the same counts, the results for `C[C@@H]1COc2cn3ncc4c3nc2N1Cc1cc(F)cnc1O[C@H]1C[C@H](C1)NC4=O` [Compound 95, (6S,8s,16R)-12-fluoro-16-methyl-5,6,7,8,16,17-hexahydro-4H,14H-6,8-methano-1,19-(metheno)[1,4]-oxazino[4,3-e]pyrazolo[3,4-h]-pyrido[2,3-b][1,5,7,11]oxatriaza-cyclotetradecin-4-one] are < 0.2 nM, 14.1 nM and 16.6 nM.

These data come from patent US20210087206A1, “MACROCYCLIC KINASE INHIBITORS AND THEIR USE” (TURNING POINT THERAPEUTICS, INC., priority 2017, published 2021).
